In patent US6160004A, “C-10 carbon-substituted artemisinin-like trioxane compounds having antimalarial, antiproliferative and antitumor activities” (priority 1998, dated 2000):

Legend:
[1] = tested on: PE cells; experiment: Viability by trypan blue exclusion; type: cell-based, murine (SENCAR mice); conditions: 96 hours
[2] = tested on: DU-145; experiment: cells; type: cell-based; conditions: Homo sapiens, DU-145, 48 h; read-out: Log10 TGI
[3] = tested on: T-47D; experiment: NCI 60 cell line panel screening assay (SRB), T-47D; conditions: Homo sapiens, T47D, 48 h, read-out: Log10 GI50 (converted)
[4] = tested on: U251; experiment: cells; type: cell-based; conditions: Homo sapiens, U-251; U251, CNS cancer, 48 h; read-out: Log10 TGI (converted)
[5] = tested on: PC-3; experiment: cells; type: cell-based; conditions: Homo sapiens; PC-3, prostate cancer, 48 h; read-out: Log10 TGI
[6] = tested on: HL-60(TB); experiment: cells; type: cell-based; conditions: Homo sapiens, HL-60, 48 h, read-out: Log10 TGI
[7] = tested on: 786-0; experiment: cells; type: cell-based; conditions: Homo sapiens; 786-0, renal cancer, 48 h; read-out: Log10 TGI
[8] = tested on: MOLT-4; conditions: MOLT-4, FIG. 6
[9] = tested on: NCI-H460; experiment: cells; type: cell-based; conditions: Homo sapiens, NCI-H460, non-small cell lung cancer, 48 h
[10] = tested on: CCRF-CEM; experiment: cells; type: cell-based; conditions: Homo sapiens, leukemia, 48 h, read-out: Log10 TGI
[11] = tested on: HCT-116; experiment: cells; type: cell-based; conditions: Homo sapiens, HCT-116, 48 h
[12] = tested on: HCT-15; experiment: cells; type: cell-based; conditions: Homo sapiens, HCT-15, colon cancer, 48 h
[13] = tested on: MOLT-4; experiment: cells; conditions: Homo sapiens, MOLT-4, 48 h
[14] = tested on: SW-620; experiment: NCI 60 cell line panel screening assay (SRB), SW-620; type: cell-based; conditions: Homo sapiens; SW-620, colon cancer, 48 h; read-out: Log10 TGI
[15] = tested on: K-562; experiment: cells; type: cell-based; conditions: Homo sapiens, K562; K-562, leukemia, 48 h; read-out: Log10 TGI (converted)
[16] = tested on: SNB-19; experiment: cells; type: cell-based; conditions: Homo sapiens; SNB-19, CNS cancer, 48 h; read-out: Log10 TGI
[17] = tested on: KM12; experiment: cells; type: cell-based; conditions: Homo sapiens; KM12, colon cancer, 48 h; read-out: Log10 TGI
[18] = tested on: SN12C; experiment: NCI 60 cell line panel screening assay (SRB), SN12C; type: cell-based; conditions: Homo sapiens, 48 h, read-out: Log10 TGI
[19] = tested on: M14; experiment: NCI 60 cell line panel screening assay (SRB), M14; conditions: Homo sapiens, M14, 48 h, read-out: Log10 TGI
[20] = tested on: 60 cell line panel; experiment: NCI 60 cell line panel, whole panel; conditions: panel
[21] = tested on: HT29; experiment: cells; type: cell-based; conditions: Homo sapiens, HT-29; HT29, colon cancer, 48 h; read-out: Log10 GI50 (converted)
[22] = tested on: MDA-MB435; experiment: NCI 60 cell line panel screening assay (SRB), MDA-MB435; type: cell-based; conditions: Homo sapiens, MDA-MB-435; printed MDA-MBA35, breast cancer, 48 h; read-out: Log10 GI50 (converted)
[23] = tested on: MDA-MB231/ATCC; experiment: cells; type: cell-based; conditions: Homo sapiens, MDA-MB-231, breast cancer, 48 h, read-out: Log10 TGI (converted)
[24] = tested on: OVCAR-4; experiment: cells; type: cell-based; conditions: Homo sapiens, OVCAR-4, 48 h
[25] = tested on: OVCAR-5; experiment: cells; type: cell-based; conditions: Homo sapiens; OVCAR-5, ovarian cancer, 48 h; read-out: Log10 TGI (converted)
[26] = tested on: SR; experiment: cells; type: cell-based; conditions: Homo sapiens, leukemia, 48 h, read-out: Log10 TGI
[27] = tested on: UACC-257; experiment: cells; type: cell-based; conditions: Homo sapiens, UACC-257, 48 h; read-out: Log10 TGI (converted)
[28] = tested on: MDA-N; experiment: NCI 60 cell line panel screening assay (SRB), MDA-N; type: cell-based; conditions: Homo sapiens, breast cancer, 48 h, read-out: Log10 GI50 (converted)
[29] = tested on: LOX IMVI; experiment: cells; type: cell-based; conditions: Homo sapiens, melanoma, 48 h, read-out: Log10 TGI (converted)
[30] = tested on: RPMI-8226; experiment: NCI 60 cell line panel screening assay (SRB), RPMI-8226; type: cell-based; conditions: Homo sapiens, RPMI-8226, leukemia, 48 h
[31] = tested on: NCI-H522; experiment: cells; type: cell-based; conditions: Homo sapiens; NCI-H522, non-small cell lung cancer, 48 h; read-out: Log10 TGI (converted)
[32] = tested on: BT-549; experiment: cells; type: cell-based; conditions: Homo sapiens, BT-549, breast cancer, 48 h
[33] = tested on: MCF7/ADR-RES; experiment: cells; type: cell-based; conditions: Homo sapiens; MCF7/ADR-RES, breast cancer, 48 h; read-out: Log10 TGI
[34] = tested on: NCI-H322M; experiment: cells; conditions: Homo sapiens, 48 h, read-out: Log10 TGI
[35] = tested on: OVCAR-8; experiment: cells; type: cell-based; conditions: Homo sapiens; OVCAR-8, ovarian cancer, 48 h; read-out: Log10 GI50 (converted)
[36] = tested on: HOP-62; experiment: cells; type: cell-based; conditions: Homo sapiens; HOP-62, non-small cell lung cancer, 48 h; read-out: Log10 TGI (converted)
[37] = tested on: IGROVI; experiment: NCI 60 cell line panel screening assay (SRB), IGROVI; type: cell-based; conditions: 48 h, read-out: Log10 TGI
[38] = tested on: MALME-3M; experiment: cells; type: cell-based; conditions: Homo sapiens, Malme-3M, 48 h, read-out: Log10 TGI
[39] = tested on: OVCAR-3; experiment: cells; type: cell-based; conditions: Homo sapiens; OVCAR-3, ovarian cancer, 48 h; read-out: Log10 TGI (converted)
[40] = cited from earlier work
[41] = rat liver microsomes; cited from earlier work
[42] = read-out: Log10 GI50 (converted)
[43] = read-out: Log10 TGI (converted)

C=C1/C(=C\C=C2/CCC[C@]3(C)[C@@H]([C@H](C)CCCC(C)(C)O)CC[C@@H]23)C[C@@H](O)C[C@@H]1O [calcitriol, 1α, 25-dihydroxyvitamin D3]
viability of treated cells [1]: identical to control cells

CC(=O)O[C@H]1C(=O)[C@@]2(C)[C@H]([C@H](OC(=O)c3ccccc3)[C@]3(O)C[C@H](OC(=O)[C@H](O)[C@@H](NC(=O)c4ccccc4)c4ccccc4)C(C)=C1C3(C)C)[C@]1(OC(C)=O)CO[C@@H]1C[C@@H]2O [Paclitaxel, reference compound]
IC (TGI) [2]: > 100 µM | GI50 [3]: 0.000155 µM | IC (TGI) [4]: 47.9 µM | IC (TGI) [5]: > 100 µM | IC (TGI) [6]: > 29.5 µM | IC (TGI) [7]: > 100 µM | concentration for cytostasis (PG 0) [8]: greater than 10^-4 M | GI50 [9, 42]: < 0.1 pM | IC (TGI) [9, 43]: 12 µM | IC (TGI) [10]: > 100 µM | GI50 [11, 42]: < 0.1 pM | IC (TGI) [11, 43]: 15.1 µM | GI50 [12, 42]: 0.427 µM | IC (TGI) ([12]; read-out: Log10 TGI): > 100 µM | CC50 ([13]; read-out: Log10 LC50 (converted)): > 100 µM | IC (TGI) ([13]; read-out: Log10 TGI): > 100 µM | IC (TGI) [14]: > 100 µM | IC (TGI) [15]: > 100 µM | IC (TGI) [16]: > 100 µM | IC (TGI) [17]: 43.7 µM | IC (TGI) [18]: 51.3 µM | IC (TGI) [19]: 24 µM | Delta of Log10 LC50 [20]: -4.06 | Delta of Log10 TGI [20]: -4.54 | Range of Log10 TGI [20]: 7.20 | GI50 [21]: < 0.1 pM | GI50 [22]: < 0.1 pM | IC (TGI) [23]: 14.5 µM | GI50 [24, 42]: 10 µM | IC (TGI) ([24]; read-out: Log10 TGI): 64.6 µM | IC (TGI) [25]: 12 µM | IC (TGI) [26]: > 100 µM | IC (TGI) [27]: 30.2 µM | GI50 [28]: < 0.1 pM | IC (TGI) [29]: 22.4 µM | GI50 [30, 42]: < 0.1 pM | IC (TGI) ([30]; read-out: Log10 TGI): > 100 µM | IC (TGI) [31]: 6.31 pM | GI50 [32, 42]: 0.00049 µM | IC (TGI) [32, 43]: 0.479 µM | IC (TGI) [33]: > 100 µM | IC (TGI) [34]: 34.7 µM | GI50 [35]: 0.0178 nM | IC (TGI) [36]: 15.8 µM | IC (TGI) [37]: 64.6 µM | IC (TGI) [38]: 34.7 µM | IC (TGI) [39]: 28.2 µM

C[C@@H]1CC[C@H]2[C@@H](C)C(O)O[C@@H]3O[C@@]4(C)CC[C@@H]1[C@]32OO4 (some centres unmarked) [dihydroartemisinin]
half-life in plasma [40]: less than two

CCO[C@H]1O[C@@H]2O[C@@]3(C)CC[C@H]4[C@H](C)CC[C@@H]([C@H]1C)[C@@]24OO3 [arteether]
conversion into dihydroartemisinin [41]: rapidly converted
